Drawing on patent US8420630B2 (Boehringer Ingelheim Pharma GmbH & Co. KG, priority 2001, dated 2013), this text covers IC50 for 26 molecules.

SMILES strings stand for the structures.

The target in the assay is T1, CDK1/cyclinB1 (Homo sapiens, UniProt P06493).
T1 construct: made in house; host or cells: High Five insect cells (Trichoplusia ni), baculovirus coinfection
T1 sequence (P06493 whole entry): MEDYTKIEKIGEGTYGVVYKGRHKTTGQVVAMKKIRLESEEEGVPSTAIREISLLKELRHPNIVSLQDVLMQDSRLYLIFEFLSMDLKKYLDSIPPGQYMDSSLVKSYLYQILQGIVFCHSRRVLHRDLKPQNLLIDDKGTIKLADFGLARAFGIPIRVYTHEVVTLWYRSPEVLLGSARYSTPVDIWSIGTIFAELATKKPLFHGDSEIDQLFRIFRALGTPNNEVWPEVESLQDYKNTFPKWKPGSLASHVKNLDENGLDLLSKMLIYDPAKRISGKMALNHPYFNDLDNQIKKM
T1 sequence (P14635 whole entry partner): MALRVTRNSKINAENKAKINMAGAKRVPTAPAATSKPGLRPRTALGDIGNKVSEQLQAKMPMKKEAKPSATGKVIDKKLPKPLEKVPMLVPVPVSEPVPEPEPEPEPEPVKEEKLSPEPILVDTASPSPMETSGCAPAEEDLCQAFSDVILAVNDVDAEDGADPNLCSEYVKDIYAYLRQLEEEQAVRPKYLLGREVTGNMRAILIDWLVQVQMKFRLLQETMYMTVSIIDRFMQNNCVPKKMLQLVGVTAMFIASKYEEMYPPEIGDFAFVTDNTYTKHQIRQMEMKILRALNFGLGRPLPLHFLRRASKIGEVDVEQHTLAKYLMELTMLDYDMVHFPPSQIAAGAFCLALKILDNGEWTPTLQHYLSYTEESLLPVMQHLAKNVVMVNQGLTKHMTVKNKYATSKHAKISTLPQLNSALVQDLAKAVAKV
The assay can be described thus: Cyclin B1-CDK1 kinase inhibition test. The assay is classed as biochemical. Conditions: CDK1 tests (Example 13); recombinant cyclin B1/CDK1, substrate histone H1; read-out: CDK1/cyclinB1 IC50 value. The protocol:
CDK4) were cloned by standard methods using RT-PCR, and cloned into a transfer vector (cyclin in pAcG2T made by Pharmingen, CDKs in p2Bac made by Invitrogen) for the baculovirus system. […] After thawing the cells were resuspended in lysing buffer (50 mM HEPES pH 7.5, 10 mM MgCl2, 1 mM DTT, 5 μg/ml leupeptin, 5 μg/ml aprotinin, 100 μM NaF, 100 μM PMSF, 10 mM β-glycerolphosphate, 100 μM Na3VO4, 30 mM nitrophenylphosphate, 17.5 ml of lysing buffer per 10^8 cells) and incubated on ice for 30 min. […] Cyclin D1-CDK4 was purified by means of a GST-tag on cyclin D1 and then using glutathione beads (total protein about 0.2 mg/ml). All the kinase tests were carried out in 96-well microtitre plates (Greiner PS) in a final volume of 60 μl. […] As a negative control the kinase reaction was carried out in the absence of the substrate histone H1. As a positive control the kinase reaction was carried out in the absence of a test substance. As an internal control 30 μM and 300 μM (final concentration) of the kinase inhibitor olomoucin (Alexis) were used. […] The kinase reaction is started by the addition of 10 μl of ATP mix (0.045 mM ATP, 0.5 μCi ^33P-ATP in kinase buffer) and incubated for 30 min at 30° C. and 600 rpm in a shaking incubator. After incubation the plates were placed on ice and the proteins were precipitated by the addition of 125 μl of ice-cold 5% trichloroacetic acid. After 15 min on ice the precipitates were transferred onto Packard Unifilter 96 GF/B plates with the Packard Harvester System, and collected by vacuum filtration. The precipitates were washed 4 times with dist. H2O at ambient temperature. The filter plates were then dried at 60° C. and 50 μl of scintillation liquid were added to each well (Ultima Gold, Packard). The plate was sealed up with Sealing Tape and after 1 h measured in a scintillation measuring apparatus (Micro Beta made by Wallac).
For the molecule `NCCc1ccccc1CCNc1nc(Nc2ccc(Cl)c(Cl)c2)ncc1C(F)(F)F` [Example 1(349), 2-(3,4-dichlorophenylamino)-4-(2-(2-(2-amino-1-ethyl)-phenyl)-1-ethyl-amino)-5-trifluoromethyl-pyrimidine], the IC50 is less than 100 nM.
`CC(CC(=O)O)Nc1nc(Nc2ccc(Cl)c(Cl)c2)ncc1C(F)(F)F` (centres unmarked) [Example 1(388), 2-(3,4-dichlorophenylamino)-4-(1-carboxy-2-propylamino)-5-trifluoromethyl-pyrimidine]: the IC50 was less than 100 nM.
As for `COc1cc(C(O)CNc2nc(Nc3ccc(Cl)c(Cl)c3)ncc2C(F)(F)F)ccc1O` (centres unmarked) [Example 1(053), 2-(3,4-dichloro-phenylamino)-4-(2-(4-hydroxy-3-methoxy-phenyl)-2-hydroxy-1-ethylamino)-5-trifluoromethyl-pyrimidine], the IC50 is less than 100 nM.
In the case of `NCC1CCN(c2nc(Nc3ccc(Br)cc3)ncc2C(F)(F)F)CC1` [Example 1(043)], the IC50 is less than 100 nM.
Consider `CC(=O)NCCNc1nc(Nc2cc(Cl)cc(Cl)c2)ncc1C(F)(F)F` [Example 2(015), 2-(3,5-Dichloro-phenylamino)-4-(2-acetylamino-ethylamino)-5-trifluoromethyl-pyrimidine], for which the IC50 was less than 100 nM.
The result for `CC(=O)NCCNc1nc(Nc2ccc(S(=O)(=O)N3CCCNCC3)cc2)ncc1C(F)(F)F` [Example 2(060), N-(2-{2-[4-(Perhydro-1,4-diazepin-1-sulphonyl)-phenylamino]-5-trifluoromethyl-pyrimidin-4-ylamino}-ethyl)-acetamide] reads less than 100 nM; that for `CC(=O)NCCNc1nc(Nc2ccc(S(N)(=O)=O)cc2)ncc1C(F)(F)F` [Example 2(008), 2-(4-aminosulphonyl-phenylamino)-4-(2-acetylamino-ethylamino)-5-trifluoromethyl-pyrimidine], less than 100 nM; that for `Clc1cnc(Nc2ccc3cn[nH]c3c2)nc1N1CCc2[nH]cnc2C1` [Example 2(134), [5-Chloro-4-(1,4,6,7-tetrahydro-imidazo[4,5-c]pyridin-5-yl)-pyrimidin-2-yl]-(1H-indazol-6-yl)-amine], less than 100 nM.
Consider `O=C1CCCN1CCCNc1nc(Nc2ccc3cn[nH]c3c2)ncc1Cl` [Example 2(048), 1-{3-[5-chloro-2-(1H-indazol-6-ylamino)-pyrimidin-4-ylamino]-propyl}-pyrrolidin-2-on], for which the IC50 is less than 100 nM.
`NC(=O)c1cccc(Nc2ncc([N+](=O)[O-])c(N3CCc4[nH]cnc4C3)n2)c1` [Example 1(022), 2-(3-aminocarbonyl-phenylamino)-4-(1,4,6,7-tetrahydro-imidazo[4,5-c]pyridin-5-yl)-5-nitro-pyrimidine]: the IC50 was less than 100 nM.
In the case of `CC(=O)NCCNc1nc(Nc2ccc(C(=O)NC(C)c3ccccc3)cc2)ncc1C(F)(F)F` (centres unmarked) [Example 8(028), 4-[4-(2-acetylamino-ethylamino)-5-trifluoromethyl-pyrimidin-2-ylamino]-N-(1-phenyl-ethyl)-benzamide], the IC50 was less than 100 nM.
Regarding `CC(=O)NCCNc1nc(Nc2ccc(Br)c(Cl)c2)ncc1C(F)(F)F` [Example 2(014), 2-(4-bromo-3-chloro-phenylamino)-4-(2-acetylamino-ethylamino)-5-trifluoromethyl-pyrimidine], the IC50 is less than 100 nM.
The result for `CC(=O)NCCNc1nc(Nc2ccc(S(=O)(=O)N(C)C)cc2)ncc1C(F)(F)F` [Example 2(047), N-{2-[2-(4-Dimethylsulphamoyl-phenylamino)-5-trifluoromethyl-pyrimidin-4-ylamino]-ethyl}-acetamide] reads less than 100 nM; that for `O=[N+]([O-])c1cnc(Nc2ccc(Br)cc2)nc1N1CCc2[nH]cnc2C1` [Example 1(116), 2-(4-bromophenylamino)-4-(1,4,6,7-tetrahydro-imidazo[4,5-c]pyridin-5-yl)-5-nitro-pyrimidine], less than 100 nM; that for `NCCCNc1nc(Nc2ccc(Cl)c(Cl)c2)ncc1C(F)(F)F` [Example 1(035), 2-(3,4-dichloro-phenylamino)-4-(3-amino-propylamino)-5-trifluoromethyl-pyrimidine], less than 100 nM.
The result for `CN(C)CC(=O)NCCCNc1nc(Nc2ccc(C(N)=O)cc2)ncc1C(F)(F)F` [Example 7(029), 4-(4-[3-(2-dimethylamino-acetylamino)-propylamino]-5-trifluoromethyl-pyrimidin-2-ylamino)-benzamide] reads less than 100 nM; that for `NC1CCC(Nc2nc(Nc3ccc(Cl)c(Cl)c3)ncc2C(F)(F)F)CC1` (centres unmarked) [Example 1(109), 2-(3,4-dichlorophenylamino)-4-(4-amino-cyclohexylamino)-5-trifluoromethyl-pyrimidine], less than 100 nM.
Take `O=C1CCCN1CCCNc1nc(Nc2ccc(CO)cc2)ncc1C(F)(F)F` [Example 2(052), 1-{3-[2-(4-Hydroxymethyl-phenylamino)-5-trifluoromethyl-pyrimidin-4-ylamino]-propyl}-pyrrolidin-2-one]: the IC50 was less than 100 nM.
In the case of `CC(=O)NCCNc1nc(Nc2ccc(NS(C)(=O)=O)cc2)ncc1C(F)(F)F` [Example 10(014), N-(2-[2-(4-methanesulphonylamido-phenylamino)-5-trifluoromethyl-pyrimidin-4-ylamino]-ethyl)-acetamide], the IC50 is less than 100 nM.
Take `Brc1cnc(Nc2ccc3cn[nH]c3c2)nc1N1CCc2nc[nH]c2CC1` [Example 2(141), [5-Bromo-4-(4,5,7,8-tetrahydro-1H-imidazo[4,5-d]azepin-6-yl)-pyrimidin-2-yl]-(1H-indazol-6-yl)-amine]: the IC50 is less than 100 nM.
The result for `O=C1CCCN1CCCNc1nc(Nc2cccc(CNCC(F)(F)F)c2)ncc1C(F)(F)F` [Example 11(034), 1-[3-(2-{3-[(2,2,2-Trifluoro-ethylamino)-methyl]-phenylamino}-5-trifluoromethyl-pyrimidin-4-ylamino)-propyl]-pyrrolidin-2-one] reads less than 100 nM; that for `O=C1CCCN1CCCNc1nc(Nc2ccc(Cl)c(Cl)c2)ncc1C(F)(F)F` [Example 1(041), 2-(3,4-dichloro-phenylamino)-4-(3-(2-oxo-pyrrolidin-1-yl)-propyl-1-amino)-5-trifluoromethyl-pyrimidine], less than 100 nM; that for `CC(=O)NCCNc1nc(Nc2ccc(S(=O)(=O)N(C)C)cc2)ncc1Br` [Example 1(652), N-{2-[5-Bromo-2-(4-dimethylsulphamoyl-phenylamino)-pyrimidin-4-ylamino]-ethyl}-acetamide], less than 100 nM.
For `O=[N+]([O-])c1ccccc1CNc1nc(Nc2ccc(Cl)c(Cl)c2)ncc1C(F)(F)F` [Example 1(016), 2-(3,4-dichloro-phenylamino)-4-(2-nitrobenzylamino)-5-trifluoromethyl-pyrimidine], the IC50 was less than 100 nM.
As to `NCCNc1nc(Nc2ccc(S(=O)(=O)N3CCOCC3)cc2)ncc1C(F)(F)F` [Example 1(689), N4-(2-amino-ethyl)-N2-[4-(morpholine-4-sulphonyl)-phenyl]-5-trifluoromethyl-pyrimidine-2,4-diamine], the IC50 was less than 100 nM.
Take `O=[N+]([O-])c1cnc(Nc2ccc(F)c(Cl)c2)nc1N1CCc2[nH]cnc2C1` [Example 1(015), 2-(3-chloro-4-fluoro-phenylamino)-4-(1,4,6,7-tetrahydro-imidazo[4,5-c]pyridin-5-yl)-5-nitro-pyrimidine]: the IC50 is less than 100 nM.
